Source: US20230057071A1 (NOVARTIS AG, priority 2019, published 2023)

Columns and labels:
IL-1 signaling = conditions: mouse model of disease; cited from earlier work
[1] = test system: rodent and cynomolgus monkey TGF-β; experiment: Species cross-reactivity of NIS793; assay type: binding
[2] = molecular target: T1, TIM-3/Galectin-9 interaction (Homo sapiens, UniProt Q8TDQ0); experiment: Plate-based (MesoScale) competition assay of the TIM-3/Galectin-9 interaction; assay type: binding; conditions: serial dilutions of antibody; labeled Galectin-9 100 nM
T1 construct: purchased R&D Systems
Experimental: FIG. 1 is a graph depicting the impact of MBG453 on the interaction between TIM3 and galectin-9. Competition was assessed as a measure of the ability of the antibody to block Gal9-SULFOTag signal to TIM-3 receptor, which is shown on the Y-axis. Concentration of the antibody is shown on the X-axis.
TIM-3 fusion protein (R&D Systems) was coated on a standard MesoScale 96 well plate (Meso Scale Discovery) at 2 μg/ml in PBS (Phosphate Buffered Saline) and incubated for six hours at room temperature. The plate was washed three times with PBST (PBS buffer containing 0.05% Tween-20) and blocked with PBS containing 5% Probumin (Millipore) overnight at 4° C. After incubation, the plate was washed three times with PBST and unlabeled antibody (F38-2E2 (BioLegend); MBG453; MBG453 F(ab′)2; MBG453 F(ab); or control recombinant human Galectin-9 protein) diluted in Assay Diluent (2% Probumin, 0.1% Tween-20, 0.1% Triton X-100 (Sigma) with 10% StabilGuard (SurModics)), was added in serial dilutions to the plate and incubated for one hour on an orbital shaker at room temperature. […] The plate was again washed three times with PBST, and Read Buffer T (1×) was added to the plate. The plate was read on MA600 Imager, and competition was assessed as a measure of the ability of the antibody to block Gal9-SULFOTag signal to TIM-3 receptor.

[3] = test system: THP-1 cells engineered to overexpress TIM-3; experiment: T cell-mediated killing of TIM-3-overexpressing versus parental THP-1 cells (co-culture, flow cytometry); assay type: cell-based, human; conditions: 25 μg/ml; 3 days co-culture; anti-CD3/anti-CD28 beads
Experimental: The ratio between TIM-3-expressing THP-1 cells and parental THP-1 cells (“fold” in y-axis of graph) was calculated and normalized to conditions without anti-CD3/anti-CD28 bead stimulation. The x-axis of the graph denotes the stimulation amount as number of beads per cell. Data represents one of two independent experiments.
THP-1 cells express TIM-3 mRNA but low to no TIM-3 protein on the cell surface. […] TIM-3 Flag-tagged THP-1 cells were labeled with 2 μM CFSE (Thermo Fisher Scientific), and THP-1 parental cells were labeled with 2 μM CTV (Thermo Fisher Scientific), according to manufacturer instructions. Co-culture assays were performed in 96-well round-bottom plates. […] Cells were then detected and counted by flow cytometry. The ratio between TIM-3-expressing THP-1 cells and parental THP-1 cells (“fold” in y-axis of graph) was calculated and normalized to conditions without anti-CD3/anti-CD28 bead stimulation. […]

[4] = test system: AML PDX model HAMLX21432 (IDH1R132H); assay type: in vivo
Experimental: MBG453 was administered i.p. at 10 mg/kg, once weekly (starting at day 6 of dosing) either as a single agent or in combination with decitabine i.p. at 1 mg/kg, once daily for a total of 5 doses (from initiation of dosing). Initial group size: 4 animals. […] All final data were recorded on day 56. Leukemic burden was measured as a percentage of human CD45+ cells in peripheral blood by FACS analysis.
(§1) The activity of MBG453 with and without decitabine was evaluated in two AML patient-derived xenograft (PDX) models, HAMLX21432 and HAMLX5343. Decitabine (TCI America) was formulated in dextrose 5% in water (D5W) freshly prior to each dose and administered daily for 5 days. It was administered at 10 mL/kg intraperitoneal (i.p.), for a final dose […]. MBG453 was formulated to a final concentration of 1 mg/mL in PBS. It was administered weekly at a volume of 10 mL/kg, i.p., for a final dose of 10 mg/kg, with treatment initiating on dosing day 6, 24 hours after the final dose of decitabine.
Treatments were initiated on the day of randomization and continued for 21 days.

[5] = test system: AML PDX model HAMLX5343 (KRASG12D, WT1, PTPN11); assay type: in vivo
Experimental: Initial group size: 4 animals. […] All final data were recorded on day 56.
as §1

[6] = cited from earlier work
[7] = single agent, 1 mg/kg i.p. daily x5

anakinra: recombinant IL-1 receptor antagonist (IL-1Ra)
BM MSC frequency (IL-1 signaling): increased | platelet counts (IL-1 signaling): reduced

NIS793: fully human IgG2 monoclonal antibody that specifically binds and neutralizes TGF-beta 1 and 2 ligands
cross-reactivity with rodent and cynomolgus monkey TGF-β [1]: cross-reacts

MBG453 F(ab): F(ab) fragment of MBG453
block of the interaction between TIM-3 and Galectin-9 (Gal9-SULFOTag signal to TIM-3) [2]: partially blocked | T cell-mediated killing of TIM-3-overexpressing THP-1 cells relative to parental THP-1 cells [3]: not

MBG453 F(ab′)2: F(ab′)2 fragment of MBG453
block of the interaction between TIM-3 and Galectin-9 (Gal9-SULFOTag signal to TIM-3) [2]: partially blocked

Nc1ncn([C@H]2C[C@H](O)[C@@H](CO)O2)c(=O)n1 [decitabine, 4-amino-1-(2-deoxy-beta-D-erythro-pentofuranosyl)-1,3,5-triazin-2(1H)-one]
leukemic burden, hCD45+ cells in circulation ([4]; day 56 post-implantation): 66% | leukemic burden, hCD45+ cells in peripheral blood ([4]; group average, day 49 post-implant or day 14 post-treatment start, decitabine 1 mg/kg i.p. daily x5, MBG453 10 mg/kg i.p. weekly): 51% | anti-tumor activity [4, 7]: moderate anti-tumor activity | leukemic burden, hCD45+ cells ([5]; group average, day 53 post-implant or day 21 post-treatment start): 1% | anti-tumor activity [5, 7]: significant anti-tumor activity | response ([6]; 21 patients with myelofibrosis): 7 of 19 | Grade 3/4 neutropenia ([6]; myelofibrosis cohort): 95 % of patients | Grade 3/4 thrombocytopenia ([6]; myelofibrosis cohort): 52 % of patients
